35 substances from the OligoGym collection can be followed below.

Oligonucleotides are written 5' to 3', each unit as a sugar letter and its base; * is a phosphorothioate linkage, no mark a phosphodiester; rarer units and linkages stand in square brackets, end groups in braces. Plain capitals give the bases only. d = 2'-deoxy (DNA); r = 2'-OH (RNA)

For one series, the target named is NOG. Kind of series: reporter assay of Huesken 2005. As to conditions: siRNA. On the technique in general: In a reporter assay the amount or activity of a reporter protein is the signal.
The next series concerns the target UBE2L6. Kind of series: reporter assay of Huesken 2005. As to conditions: siRNA.
Note: test concentration or dose not given here.

With “sense rUrGrGrUrGrGrArCrCrUrCrArUrCrGrArArCrAdTdT / antisense rUrGrUrUrCrGrArUrGrArGrGrUrCrCrArCrCrAdGdG”, the normalised inhibition (eCFP-eYFP dual reporter) with NOG stood at 96.4%.
The same measure, in the same setting: the figure for “sense rGrCrArGrCrUrGrCrUrUrCrArGrUrArArGrCrGdTdT / antisense rCrGrCrUrUrArCrUrGrArArGrCrArGrCrUrGrCdCdC” is 63.1%; for “sense rArUrUrCrUrGrCrCrCrCrGrUrGrCrUrGrUrArCdTdT / antisense rGrUrArCrArGrCrArCrGrGrGrGrCrArGrArArUdGdT” it is 51%; for “sense rUrUrGrGrCrCrCrArGrGrGrCrArArGrArArGrCdTdT / antisense rGrCrUrUrCrUrUrGrCrCrCrUrGrGrGrCrCrArAdGdC” it is 41.1%.
On the same count and under the same terms, the result for “sense rUrGrCrUrGrUrArCrGrCrGrUrGrGrArArCrGrAdTdT / antisense rUrCrGrUrUrCrCrArCrGrCrGrUrArCrArGrCrAdCdG” reads 85.2%; that for “sense rCrGrCrArGrArCrArUrUrCrUrGrCrCrCrCrGrUdTdT / antisense rArCrGrGrGrGrCrArGrArArUrGrUrCrUrGrCrGdAdC”, 53%; that for “sense rCrArGrCrGrCrCrUrArArGrCrArArGrArArGrCdTdT / antisense rGrCrUrUrCrUrUrGrCrUrUrArGrGrCrGrCrUrGdCdT”, 62.6%.
Same read-out and setting: the figure for “sense rGrCrCrUrArArGrCrArArGrArArGrCrUrGrCrGdTdT / antisense rCrGrCrArGrCrUrUrCrUrUrGrCrUrUrArGrGrCdGdC” is 85.7%.
With “sense rGrArArGrCrArGrCrGrCrCrUrArArGrCrArArGdTdT / antisense rCrUrUrGrCrUrUrArGrGrCrGrCrUrGrCrUrUrCdTdT”, the normalised inhibition (eCFP-eYFP dual reporter) with NOG came out at 83%.
Still for that read-out and setting: the result for “sense rArGrUrArArGrCrGrCrUrCrGrUrGrCrUrCrCrGdTdT / antisense rCrGrGrArGrCrArCrGrArGrCrGrCrUrUrArCrUdGdA” reads 51%.
Regarding “sense rUrGrGrArArGrCrCrUrUrGrCrArCrCrArArGrAdTdT / antisense rUrCrUrUrGrGrUrGrCrArArGrGrCrUrUrCrCrAdGdT”, the normalised inhibition (eCFP-eYFP dual reporter) with UBE2L6 amounted to 77.7%.
On to “sense rCrCrCrArUrCrArUrCrArGrCrArGrUrGrArGrAdTdT / antisense rUrCrUrCrArCrUrGrCrUrGrArUrGrArUrGrGrGdCdA”, for which the normalised inhibition (eCFP-eYFP dual reporter) with UBE2L6 turned out to be 74%.
Same read-out and setting: the figure for “sense rArCrCrArArGrArUrCrUrArCrCrArCrCrCrCrAdTdT / antisense rUrGrGrGrGrUrGrGrUrArGrArUrCrUrUrGrGrUdTdG” is 90.8%; for “sense rGrArGrCrCrCrCrUrGrCrGrGrArUrGrGrArCrCdTdT / antisense rGrGrUrCrCrArUrCrCrGrCrArGrGrGrGrCrUrCdCdC” it is 55.9%; for “sense rUrCrCrUrCrCrUrArCrCrCrGrArCrCrArArCrCdTdT / antisense rGrGrUrUrGrGrUrCrGrGrGrUrArGrGrArGrGrAdGdA” it is 49.5%.
Same read-out and setting: the figure for “sense rArArCrCrUrGrCrGrCrArUrCrArGrCrUrUrCrCdTdT / antisense rGrGrArArGrCrUrGrArUrGrCrGrCrArGrGrUrUdGdA” is 51.6%.
The same measure, in the same setting: the figure for “sense rUrUrCrArGrArArArGrArArUrGrCrCrGrArArGdTdT / antisense rCrUrUrCrGrGrCrArUrUrCrUrUrUrCrUrGrArAdCdA” is 57.7%.
“sense rCrCrCrArUrGrArUrCrArArArUrUrCrArCrArAdTdT / antisense rUrUrGrUrGrArArUrUrUrGrArUrCrArUrGrGrGdAdG”: the normalised inhibition (eCFP-eYFP dual reporter) with UBE2L6 worked out at 95.2%.
For the substance “sense rArCrUrUrGrCrCrArArGrUrCrCrUrGrGrArGrGdTdT / antisense rCrCrUrCrCrArGrGrArCrUrUrGrGrCrArArGrUdCdT”, in the series with UBE2L6, the normalised inhibition (eCFP-eYFP dual reporter) was 31.8%.
The same measure, in the same setting: the result for “sense rCrCrUrGrCrGrGrArUrGrGrArCrCrUrCrGrCrUdTdT / antisense rArGrCrGrArGrGrUrCrCrArUrCrCrGrCrArGrGdGdG” reads 81.8%; that for “sense rUrGrArCrArCrArGrArArUrCrCrGrGrArGrCrUdTdT / antisense rArGrCrUrCrCrGrGrArUrUrCrUrGrUrGrUrCrAdGdC”, 54.8%.
Same read-out and setting: the figure for “sense rUrUrCrArArGrCrCrUrCrCrCrArUrGrArUrCrAdTdT / antisense rUrGrArUrCrArUrGrGrGrArGrGrCrUrUrGrArAdCdG” is 71.2%; for “sense rGrGrArGrUrArUrCrCrGrUrUrCrArArGrCrCrUdTdT / antisense rArGrGrCrUrUrGrArArCrGrGrArUrArCrUrCrCdGdG” it is 84.6%.
Still for that read-out and setting: the figure for “sense rGrUrGrArArUrArGrArCrCrGrArArUrArUrCrAdTdT / antisense rUrGrArUrArUrUrCrGrGrUrCrUrArUrUrCrArCdCdA” is 89.9%.
As to “sense rUrCrUrArCrCrArCrCrCrCrArArCrGrUrGrGrAdTdT / antisense rUrCrCrArCrGrUrUrGrGrGrGrUrGrGrUrArGrAdTdC”, the normalised inhibition (eCFP-eYFP dual reporter) with UBE2L6 worked out at 53%.
Still for that read-out and setting: the result for “sense rCrArCrArArCrCrArArGrArUrCrUrArCrCrArCdTdT / antisense rGrUrGrGrUrArGrArUrCrUrUrGrGrUrUrGrUrGdAdA” reads 45.8%; that for “sense rCrCrArUrArCrCrUrGrCrGrGrArArCrCrUrGrUdTdT / antisense rArCrArGrGrUrUrCrCrGrCrArGrGrUrArUrGrGdGdG”, 88.3%; that for “sense rArArCrCrArArGrArUrCrUrArCrCrArCrCrCrCdTdT / antisense rGrGrGrGrUrGrGrUrArGrArUrCrUrUrGrGrUrUdGdT”, 43.6%.
Same read-out and setting: the figure for “sense rGrGrArGrCrUrGrUrUrCrArGrArArArGrArArUdTdT / antisense rArUrUrCrUrUrUrCrUrGrArArCrArGrCrUrCrCdGdG” is 108%.
Same read-out and setting: the result for “sense rCrGrArUrGrArUrGrCrCrArArUrGrUrCrCrUrGdTdT / antisense rCrArGrGrArCrArUrUrGrGrCrArUrCrArUrCrGdCdT” reads 97.1%; that for “sense rArCrCrUrCrGrCrUrGrArCrCrUrGrCrUrGrArCdTdT / antisense rGrUrCrArGrCrArGrGrUrCrArGrCrGrArGrGrUdCdC”, 58.6%.
As for “sense rCrUrGrCrGrGrArArCrCrUrGrUrCrCrArGrCrGdTdT / antisense rCrGrCrUrGrGrArCrArGrGrUrUrCrCrGrCrArGdGdT”, in the series with UBE2L6, the normalised inhibition (eCFP-eYFP dual reporter) is 76.1%.
On the same count and under the same terms, the result for “sense rCrCrCrUrGrCrGrGrArUrGrGrArCrCrUrCrGrCdTdT / antisense rGrCrGrArGrGrUrCrCrArUrCrCrGrCrArGrGrGdGdC” reads 59.7%; that for “sense rArArCrUrGrGrArArGrCrCrUrUrGrCrArCrCrAdTdT / antisense rUrGrGrUrGrCrArArGrGrCrUrUrCrCrArGrUrUdCdT”, 77.8%.
On the same count and under the same terms, the result for “sense rArGrUrUrCrArCrCrCrUrCrCrGrArUrUrCrGrGdTdT / antisense rCrCrGrArArUrCrGrGrArGrGrGrUrGrArArCrUdCdT” reads 55.3%.
